IC50 data for 1 compound are collected here from PMC3634096 (The Korean Journal of Physiology & Pharmacology : …, 2013).

The target of this experiment is GABAC receptor ρ1 subunit (homomeric) (Homo sapiens, UniProt P24046). Briefly: two-electrode voltage clamp in Xenopus oocytes, inhibition of GABA. It is filed as cell-based.
Chain of GABAC receptor ρ1 subunit (homomeric) (P24046 22-479): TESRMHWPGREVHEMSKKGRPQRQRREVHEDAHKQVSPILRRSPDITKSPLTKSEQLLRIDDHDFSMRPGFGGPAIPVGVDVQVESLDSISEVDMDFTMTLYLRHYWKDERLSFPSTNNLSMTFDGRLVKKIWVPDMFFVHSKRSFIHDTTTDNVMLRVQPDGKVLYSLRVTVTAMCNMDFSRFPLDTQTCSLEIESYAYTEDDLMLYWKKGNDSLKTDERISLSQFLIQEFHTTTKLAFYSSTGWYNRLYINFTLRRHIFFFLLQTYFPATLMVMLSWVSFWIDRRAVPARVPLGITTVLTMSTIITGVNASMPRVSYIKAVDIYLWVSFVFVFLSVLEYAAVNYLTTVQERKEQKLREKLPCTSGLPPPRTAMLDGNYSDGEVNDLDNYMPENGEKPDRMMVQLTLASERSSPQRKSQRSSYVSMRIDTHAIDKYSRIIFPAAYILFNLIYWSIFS

In general, IC50 refers to the midpoint of a concentration-inhibition curve. Higher therefore signals weaker potency in that assay. As for `Oc1ccc(/C=C/c2cc(O)cc(O)c2)cc1` [Res, Resveratrol], inhibition was half-maximal at 28.9 ± 2.8 µM (IC50).
